Experimental data as given in patent US10058619B2, “P97-polynucleotide conjugates” (biOasis Technologies, Inc., priority 2014, dated 2018).

What was measured:
[1] = Brain delivery of AF680-labeled test molecules after IV injection, 3D confocal microscopy of brain sections; type: in vivo, Balb/c mice
Method: Test molecules were intravenously injected (via tail vein) in Balb/c mice and 1 hour later the animals were sacrificed as follows: Prior to euthanasia, mice were injected (i.v.) with tomato Lectin-Texas Red ([…]) for 10 min to stain the brain vasculature. Blood was cleared by intracardiac perfusion of 10 ml heparinized saline (1 ml/min). Brains were excised and frozen on dry ice and stored at −80° C. Brains were mounted in Tissue Tek and sectioned ([…], 3 sections/brain) with a cryostat at −2° C. Sections (n=3/brain) were mounted on Superfrost Plus microscope slides, fixed in cold Acetone/MeOH (1:1) for 10 min at RT, and then washed with PBS. Glass coverslips were mounted on sections using Prolong Gold antifade reagent with DAPI (Molecular probes, P36931). 3D confocal microscopy was performed (4 random fields per section were captured).
Signals for all the sections were calibrated with respect to the PBS control group in order to observe only minimal (but not completely null) AF680 fluorescent signal in those sections (see FIG. 4A).

[2] = tested on: mouse model of middle cerebral artery occlusion (MCAO); assay: Infarct volume analysis (TTC staining) in mouse model of middle cerebral artery occlusion (MCAO); type: in vivo, C57/Bl6 mice; settings: pretreated 3 times with 30 mg/kg IV, 1 hour MCAO, 24 hours post reperfusion
Method: The NOX4 gene-targeted p97-siRNA conjugates from Example 1 were tested for their ability to provide neuroprotection in a mouse model of middle cerebral artery occlusion (MCAO) (see, e.g., Chang et al., J Vis Exp. 2761:2011; Althenhöfer et al., Cell. Mol. Life Sci. 69:2327-2343, 2012; and Kleinschnitz et al., PLoS Biol. 8(9):e1000479, 2010).
C57/Bl6 mice were pretreated 3 times (1 hour interval between each injection) with either PBS or 30 mg/kg of siRNA alone or p97-siRNA via intravenous (IV) injection. Animals were subjected to stroke via MCAO about 1 hour following the last injection, as follows. The external and internal carotid arteries (ECA and ICA, respectively) were dissected and isolated and the common carotid artery (CCA) ligated. An […] 8-0 nylon thread coated in dental silicone was inserted into a small hole in the ECA towards the bifurcation of the CCA. […]
When the TTC staining was completed, infarct size was measured by a colorimetric staining method. […]
Absorbance was measured at 485 nm in a spectrophotometer and the values were averaged. Percentage loss in brain TIC staining in the ischemic side of the brain was compared with the contralateral side of the brain of the same animal using the following equation: % loss=100×(1−absorbance of ischemic hemisphere/absorbance of contralateral hemisphere)

## siRNA^AF680: negative control: unconjugated NOX4 antisense strand annealed to the AF680-labeled sense strand (antisense AUGUUCACAAAGUCAGGUCTT; sense GACCUGACUUUGUGAACAUTT; sense strand linked to Alexa Fluor 680 via linker, end not given here, further chemistry not given here)
[1]; 10.0 mg/kg IV via tail vein, 1 h, Balb/c mice, brain sections
  AF680 signal in the vasculature: no AF680 signal was observed
[1]; 10.0 mg/kg IV via tail vein, 1 h, Balb/c mice, signals calibrated to PBS control
  perinuclear AF680 signal in the brain parenchyma: not detected
[1]; mice, following intravenous administration
  AF680 (red) staining in brain tissues (immunofluorescence imaging, FIGS. 4A-4D): no AF680 (red) staining
[2]
  infarct areas / infarct volume in the brain: large infarct areas
